Measured values: patent US9274101B2 (BIOLOG, Inc., priority 2001, dated 2016)

What was measured:
Format in all cases: cell-based, human
[1] = tested on: Undifferentiated HL-60 cells; test: Energy use by undifferentiated HL-60 cells
HepG2 cells = HepG2 cells on flat bottom plastic wells, energy sources at a range of concentrations
Protocol: In this Example, methods for testing adherent cells for their ability to use multiple carbon sources are described. The human hepatocellular carcinoma cell line known as HepG2 (Knowles et al., Science, 209:497-499 [1980]) was chosen for this experiment. However, this application is not intended to be limited to the use of HepG2 cells, hepatocytes, carcinoma cells or even human cells.
HepG2 cells were grown in Falcon tissue culture flasks with vented tops. The culture medium used was Minimal Essential medium (MEM, Invitrogen 11095) with 1 g/L glucose, 2 mM L-glutamine, 2.2 g/L sodium bicarbonate, 10 mg/L phenol red, and supplemented with 0.1 mM Nonessential Amino Acids, 1 mM sodium pyruvate, 50 U/mL penicillin, 50 μg/mL streptomycin, and 10% (v/v) heat inactivated fetal bovine serum (HI FBS, Invitrogen 16140). The cells were seeded at 2×10^4/cm^2 and used 3 days after initiation of culture. During all incubations, the cells were kept in an atmosphere of 5% CO2, 90-100% humidity, and 37° C. Cells were harvested by trypsinization for 3 minutes in 0.25% trypsin-1 mM EDTA and resuspended in an equal volume of culture medium. A viable cell count was obtained by trypan blue exclusion and an appropriate volume of the cell suspension (to have 33% more viable cells than was sufficient for the experiment) was placed in a polypropylene centrifuge tube. Cells were pelleted by centrifugation at 350×g for 10 minutes at room temperature, resuspended in Dulbecco's Phosphate Buffered Saline (D-PBS, Invitrogen 14040) and centrifuged a second time. Cells were then resuspended to two-thirds the final volume needed in Dulbecco' ? s Modified Eagle's Medium (DME, Sigma D5030) containing 10% HI FBS and penicillin-streptomycin but without glucose, L-glutamine, sodium pyruvate, and phenol red. An aliquot was counted by trypan blue exclusion and the cell density was adjusted to 1.28×10^5/mL. Cells were plated in 100 μL/well in wells of standard, 96-well plates (4×10^4 cells/cm^2) and allowed to adhere overnight prior to addition of test chemicals.
For assay, the culture medium was aspirated, the wells were washed once with D-PBS and 170 μL of DME were added to each well, followed by 30 μL of the appropriate dilution of each test energy source. Stocks of 133 mM of each test chemical were prepared in tissue culture grade water, sterile filtered, and dilutions were prepared in a master plate so that, upon dilution into a regular 96-well MICROPLATE a total well volume of 200 μL, the final concentrations would be 0.033 to 20 mM. Negative control wells received 30 μL of tissue culture grade water. For each plate containing energy sources and cells, a second, control plate containing only energy sources was prepared. Plates were incubated at 5% CO2, 90-100% humidity, and 37° C. for 48 to 72 hours prior to addition of the MTS/PMS colorometric reagent (10 μL/well). The color formed in each well 4-24 hours after addition of the calorimetric reagent, was measured with a plate reader at 490 nm with a reference wavelength of 650 nm. OD values from the control plate were subtracted from the OD values obtained with cells prior to normalizing the data to % negative control (cells without added energy source).

HL-60 cells [2] = test: Effect of 10 mM citric acid on HL-60 energy utilization; settings: negative control without energy sources and without citric acid
HL-60 cells [3] = test: Effect of 1 mM chloramphenicol on HL-60 energy utilization; settings: negative control without chloramphenicol
Protocol: In this Example, methods for testing antimicrobial-induced modulation in growth of a cell are described. The antimicrobial selected for this Example is chloramphenicol. However, this application is not intended to be limited to the use of chloramphenicol, translation inhibitors or even antibiotics. HL-60 cells were cultured as described in Example 27.
After washing, HL-60 cells were resuspended in DME-R. An aliquot of the cell suspension was counted by trypan blue exclusion and the cell density was adjusted to 6.67×10^5[…]. Fifty μL of DME-R containing 3 mM chloramphenicol were added to each well of the appropriate number of half area, 96-well plates, followed by 25 μL of the appropriate dilution of each test energy source. Stocks of 133 mM of each test chemical were prepared in tissue culture grade water, sterile filtered, and dilutions were prepared in a master plate so that, upon dilution in a total volume of 150 μL, the final concentrations would be 0.033 to 20 mM. Negative control wells received 25 μL of tissue culture grade water. The cells were plated at a volume of 75 μL/well, giving a final cell density of 5×10^4/well. For each plate containing energy sources and cells, a second, control plate containing only energy sources was prepared. Plates were incubated at 5% CO2, 90-100% humidity, and 37° C. for 24 hours prior to addition of the MTS/MPMS colorimetric reagent (7.5 μL/well). The color formed in each well 24 hours after addition of the colorimetric reagent, was measured with a plate reader at 490 nm with a reference wavelength of 650 nm. OD values from the control plate were subtracted from the OD values obtained with cells prior to normalizing the data to % negative control.
Data shown in Table 25 are expressed as percent negative control without chloramphenicol. […] Chloramphenicol clearly has a different effect on the cells than citrate shown in Example 33.

[4] = energy source 0.03 mM with 1 mM chloramphenicol
[5] = energy source 0.10 mM with 1 mM chloramphenicol
[6] = energy source 0.33 mM with 1 mM chloramphenicol
[7] = energy source 1.00 mM with 1 mM chloramphenicol
[8] = energy source 3.3 mM with 1 mM chloramphenicol
[9] = energy source 10 mM with 1 mM chloramphenicol
[10] = energy source 15 mM with 1 mM chloramphenicol
[11] = energy source 20 mM with 1 mM chloramphenicol

SMILES: O=C1O[C@H]([C@@H](O)CO)[C@@H](O)[C@@H]1O [L-gal acid g-lactone]
- Energy Use by Undifferentiated HL-60 Cells ([1]; Conc. 0.03 mM): 117.0 % of negative control
- Energy Use by Undifferentiated HL-60 Cells ([1]; Conc. 0.10 mM): 125.9 % of negative control
- Energy Use by Undifferentiated HL-60 Cells ([1]; Conc. 0.33 mM): 132.9 % of negative control
- Energy Use by Undifferentiated HL-60 Cells ([1]; Conc. 1.00 mM): 137.0 % of negative control
- Energy Use by Undifferentiated HL-60 Cells ([1]; Conc. 3.3 mM): 160.8 % of negative control
- Energy Use by Undifferentiated HL-60 Cells ([1]; Conc. 10 mM): 153.0 % of negative control
- Energy Use by Undifferentiated HL-60 Cells ([1]; Conc. 15 mM): 163.4 % of negative control
- Energy Use by Undifferentiated HL-60 Cells ([1]; Conc. 20 mM): 126.2 % of negative control
- HepG2 Cells Responses After 72 hours in Culture and a 4 hour Color Development Period (HepG2 cells; Conc. 0.03 mM): 121.2 % of negative control
- HepG2 Cells Responses After 72 hours in Culture and a 4 hour Color Development Period (HepG2 cells; Conc. 0.10 mM): 127.4 % of negative control
- HepG2 Cells Responses After 72 hours in Culture and a 4 hour Color Development Period (HepG2 cells; Conc. 0.33 mM): 196.4 % of negative control
- HepG2 Cells Responses After 72 hours in Culture and a 4 hour Color Development Period (HepG2 cells; Conc. 1.00 mM): 164.1 % of negative control
- HepG2 Cells Responses After 72 hours in Culture and a 4 hour Color Development Period (HepG2 cells; Conc. 3.3 mM): 172.8 % of negative control
- HepG2 Cells Responses After 72 hours in Culture and a 4 hour Color Development Period (HepG2 cells; Conc. 10 mM): 181.5 % of negative control
- HepG2 Cells Responses After 72 hours in Culture and a 4 hour Color Development Period (HepG2 cells; Conc. 15 mM): 215.1 % of negative control
- HepG2 Cells Responses After 72 hours in Culture and a 4 hour Color Development Period (HepG2 cells; Conc. 20 mM): 231.2 % of negative control
- Effect of 10 mM Citric Acid on HL-60 Energy Utilization (HL-60 cells [2]; energy source 0.03 mM with 10 mM citric acid): 16.2 % of negative control
- Effect of 10 mM Citric Acid on HL-60 Energy Utilization (HL-60 cells [2]; energy source 0.10 mM with 10 mM citric acid): 18.2 % of negative control
- Effect of 10 mM Citric Acid on HL-60 Energy Utilization (HL-60 cells [2]; energy source 0.33 mM with 10 mM citric acid): 19.7 % of negative control
- Effect of 10 mM Citric Acid on HL-60 Energy Utilization (HL-60 cells [2]; energy source 1.00 mM with 10 mM citric acid): 38.6 % of negative control
- Effect of 10 mM Citric Acid on HL-60 Energy Utilization (HL-60 cells [2]; energy source 3.3 mM with 10 mM citric acid): 188.9 % of negative control
- Effect of 10 mM Citric Acid on HL-60 Energy Utilization (HL-60 cells [2]; energy source 10 mM with 10 mM citric acid): 138.4 % of negative control
- Effect of 10 mM Citric Acid on HL-60 Energy Utilization (HL-60 cells [2]; energy source 15 mM with 10 mM citric acid): 122.4 % of negative control
- Effect of 10 mM Citric Acid on HL-60 Energy Utilization (HL-60 cells [2]; energy source 20 mM with 10 mM citric acid): 111.5 % of negative control
- Effect of 1 mM chloramphenicol on HL-60 Energy Utilization (HL-60 cells [3]; [4]): −2.0 % of negative control
- Effect of 1 mM chloramphenicol on HL-60 Energy Utilization (HL-60 cells [3]; [5]): −8.4 % of negative control
- Effect of 1 mM chloramphenicol on HL-60 Energy Utilization (HL-60 cells [3]; [6]): 4.3 % of negative control
- Effect of 1 mM chloramphenicol on HL-60 Energy Utilization (HL-60 cells [3]; [7]): −13.9 % of negative control
- Effect of 1 mM chloramphenicol on HL-60 Energy Utilization (HL-60 cells [3]; [8]): 3.7 % of negative control
- Effect of 1 mM chloramphenicol on HL-60 Energy Utilization (HL-60 cells [3]; [9]): 14.5 % of negative control
- Effect of 1 mM chloramphenicol on HL-60 Energy Utilization (HL-60 cells [3]; [10]): 18.0 % of negative control
- Effect of 1 mM chloramphenicol on HL-60 Energy Utilization (HL-60 cells [3]; [11]): 2.4 % of negative control

SMILES: N[C@@H](Cc1c[nH]cn1)C(=O)O [L-histidine]
- activity at 30 µM ([1]; Homo sapiens, HL-60, 24 h, Conc. 0.03 mM, read-out: Energy Use by Undifferentiated HL-60 Cells): 119%
- activity at 100 µM ([1]; Homo sapiens, HL-60, 24 h, Conc. 0.10 mM, read-out: Energy Use by Undifferentiated HL-60 Cells): 117%
- activity at 330 µM ([1]; Homo sapiens, HL-60, 24 h, Conc. 0.33 mM, read-out: Energy Use by Undifferentiated HL-60 Cells): 105%
- activity at 1000 µM ([1]; Homo sapiens, HL-60, 24 h, Conc. 1.00 mM, read-out: Energy Use by Undifferentiated HL-60 Cells): 118%
- activity at 3300 µM ([1]; Homo sapiens, HL-60, 24 h, Conc. 3.3 mM, read-out: Energy Use by Undifferentiated HL-60 Cells): 162%
- activity at 10000 µM ([1]; Homo sapiens, HL-60, 24 h, Conc. 10 mM, read-out: Energy Use by Undifferentiated HL-60 Cells): 144%
- activity at 15000 µM ([1]; Homo sapiens, HL-60, 24 h, Conc. 15 mM, read-out: Energy Use by Undifferentiated HL-60 Cells): 149%
- activity at 20000 µM ([1]; Homo sapiens, HL-60, 24 h, Conc. 20 mM, read-out: Energy Use by Undifferentiated HL-60 Cells): 104%
- activity at 30 µM (HepG2 cells; Homo sapiens, HepG2, 72 h, Conc. 0.03 mM, read-out: HepG2 Cells Responses After 72 hours in Culture and a 4 hour Color Development Period): 125%
- activity at 100 µM (HepG2 cells; Homo sapiens, HepG2, 72 h, Conc. 0.10 mM, read-out: HepG2 Cells Responses After 72 hours in Culture and a 4 hour Color Development Period): 142%
- activity at 330 µM (HepG2 cells; Homo sapiens, HepG2, 72 h, Conc. 0.33 mM, read-out: HepG2 Cells Responses After 72 hours in Culture and a 4 hour Color Development Period): 173%
- activity at 1000 µM (HepG2 cells; Homo sapiens, HepG2, 72 h, Conc. 1.00 mM, read-out: HepG2 Cells Responses After 72 hours in Culture and a 4 hour Color Development Period): 148%
- activity at 3300 µM (HepG2 cells; Homo sapiens, HepG2, 72 h, Conc. 3.3 mM, read-out: HepG2 Cells Responses After 72 hours in Culture and a 4 hour Color Development Period): 180%
- activity at 10000 µM (HepG2 cells; Homo sapiens, HepG2, 72 h, Conc. 10 mM, read-out: HepG2 Cells Responses After 72 hours in Culture and a 4 hour Color Development Period): 210%
- activity at 15000 µM (HepG2 cells; Homo sapiens, HepG2, 72 h, Conc. 15 mM, read-out: HepG2 Cells Responses After 72 hours in Culture and a 4 hour Color Development Period): 195%
- activity at 20000 µM (HepG2 cells; Homo sapiens, HepG2, 72 h, Conc. 20 mM, read-out: HepG2 Cells Responses After 72 hours in Culture and a 4 hour Color Development Period): 72.1%
- Effect of 1 mM chloramphenicol on HL-60 Energy Utilization (HL-60 cells [3]; [4]): 6.9 % of negative control
- Effect of 1 mM chloramphenicol on HL-60 Energy Utilization (HL-60 cells [3]; [5]): 4.3 % of negative control
- Effect of 1 mM chloramphenicol on HL-60 Energy Utilization (HL-60 cells [3]; [6]): 7.3 % of negative control
- Effect of 1 mM chloramphenicol on HL-60 Energy Utilization (HL-60 cells [3]; [7]): 7.2 % of negative control
- Effect of 1 mM chloramphenicol on HL-60 Energy Utilization (HL-60 cells [3]; [8]): 13.9 % of negative control
- Effect of 1 mM chloramphenicol on HL-60 Energy Utilization (HL-60 cells [3]; [9]): 19.1 % of negative control
- Effect of 1 mM chloramphenicol on HL-60 Energy Utilization (HL-60 cells [3]; [10]): 13.1 % of negative control
- Effect of 1 mM chloramphenicol on HL-60 Energy Utilization (HL-60 cells [3]; [11]): 8.4 % of negative control
